Experimental data taken from the supplement of paper PMC10307832.

What was measured:
Experiment in all cases: relative viability (nuclei count vs DMSO), 5 days (fraction); higher = more cells survive
Idelalisib + Palbociclib = compound: CC[C@H](Nc1ncnc2[nH]cnc12)c1nc2cccc(F)c2c(=O)n1-c1ccccc1 [Idelalisib] + CC(=O)c1c(C)c2cnc(Nc3ccc(N4CCNCC4)cn3)nc2n(C2CCCC2)c1=O [Palbociclib] (partner 0.5 µM)
In short: (§1)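 The day after seeding in 1536-well plates, lung cancer cell lines were treated by pin tool with a single drug, or with a fixed anchor-drug dose together with five library-drug doses (not always all listed) in √10 steps. After 5 days, a combined fix-and-stain solution (final 0.05% Triton X-100, 1% formaldehyde, 1 ug/ml Hoechst) was added. Nuclei counted on 4× images gave relative viability as treated counts over vehicle counts, reported as the median of duplicate plates.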

Idelalisib + Foretinib = compound: CC[C@H](Nc1ncnc2[nH]cnc12)c1nc2cccc(F)c2c(=O)n1-c1ccccc1 [Idelalisib] + COc1cc2c(Oc3ccc(NC(=O)C4(C(=O)Nc5ccc(F)cc5)CC4)cc3F)ccnc2cc1OCCCN1CCOCC1 [Foretinib] (partner 0.25 µM)
In short: as §1

Pemetrexed + AZD7762 = compound: Nc1nc2[nH]cc(CCc3ccc(C(=O)N[C@@H](CCC(=O)O)C(=O)O)cc3)c2c(=O)[nH]1 [Pemetrexed] + NC(=O)Nc1cc(-c2cccc(F)c2)sc1C(=O)N[C@H]1CCCNC1 [AZD7762] (partner 0.2 µM)
In short: as §1

Pemetrexed + Crizotinib = compound: Nc1nc2[nH]cc(CCc3ccc(C(=O)N[C@@H](CCC(=O)O)C(=O)O)cc3)c2c(=O)[nH]1 [Pemetrexed] + C[C@@H](Oc1cc(-c2cnn(C3CCNCC3)c2)cnc1N)c1c(Cl)ccc(F)c1Cl [Crizotinib] (partner 1 µM)
In short: as §1

Cell Line | relative viability (Idelalisib + Palbociclib; first compound 0.04 µM) | relative viability (Idelalisib + Palbociclib; first compound 0.1265 µM) | relative viability (Idelalisib + Palbociclib; first compound 0.4 µM) | relative viability (Idelalisib + Palbociclib; first compound 1.265 µM) | relative viability (Idelalisib + Palbociclib; first compound 4 µM) | relative viability (Idelalisib + Foretinib; first compound 0.04 µM) | relative viability (Idelalisib + Foretinib; first compound 0.1265 µM) | relative viability (Idelalisib + Foretinib; first compound 0.4 µM) | relative viability (Idelalisib + Foretinib; first compound 1.265 µM) | relative viability (Idelalisib + Foretinib; first compound 4 µM) | relative viability (Pemetrexed + AZD7762; first compound 0.002 µM) | relative viability (Pemetrexed + AZD7762; first compound 0.006325 µM) | relative viability (Pemetrexed + AZD7762; first compound 0.02 µM) | relative viability (Pemetrexed + AZD7762; first compound 0.06325 µM) | relative viability (Pemetrexed + AZD7762; first compound 0.2 µM) | relative viability (Pemetrexed + Crizotinib; first compound 0.002 µM) | relative viability (Pemetrexed + Crizotinib; first compound 0.006325 µM) | relative viability (Pemetrexed + Crizotinib; first compound 0.02 µM) | relative viability (Pemetrexed + Crizotinib; first compound 0.06325 µM) | relative viability (Pemetrexed + Crizotinib; first compound 0.2 µM)
201T | 0.375 | 0.344 | 0.322 | 0.36 | 0.294 | 1.09 | 1.07 | 0.741 | 1.11 | 0.993 | 0.606 | 0.612 | 0.725 | 0.512 | 0.374 | 0.941 | 1.03 | 1.05 | 1.07 | 0.999
A-427 | 0.558 | 0.542 | 0.491 | 0.559 | 0.505 | 1.27 | 0.946 | 0.962 | 1.04 | 1.06 | 0.798 | 0.708 | 0.818 | 0.755 | 0.733 | 0.905 | 0.894 | 0.953 | 0.936 | 0.884
ABC-1 | 0.546 | 0.6 | 0.664 | 0.686 | 0.709 | 1.09 | 1.06 | 0.853 | 0.963 | 0.977 | 0.907 | 0.847 | 0.856 | 0.732 | 0.726 | 0.997 | 1.2 | 1.18 | 1 | 1.05
BEN | 0.532 | 0.438 | 0.452 | 0.509 | 0.413 | 0.751 | 0.567 | 0.539 | 0.856 | 0.661 | 0.746 | 0.849 | 0.765 | 0.638 | 0.648 | 0.992 | 0.859 | 0.896 | 0.787 | 0.715
CAL-12T | 0.836 | 0.525 | 0.448 | 0.615 | 0.414 | 1.27 | 1.13 | 1.09 | 1.16 | 1.39 | 0.562 | 0.685 | 0.782 | 0.579 | 0.543 | 0.647 | 0.67 | 0.971 | 0.65 | 0.643
ChaGo-K-1 | 0.972 | 0.928 | 0.987 | 0.904 | 0.901 | 1.02 | 0.919 | 0.766 | 0.931 | 0.82 | 0.902 | 0.803 | 0.834 | 0.27 | 0.238 | 1.15 | 1 | 0.969 | 0.366 | 0.344
EKVX | 0.362 | 0.373 | 0.358 | 0.325 | 0.298 | 0.826 | 0.984 | 0.773 | 0.843 | 0.808 | 0.589 | 0.645 | 0.636 | 0.549 | 0.654 | 0.816 | 0.841 | 0.907 | 0.856 | 0.508
EMC-BAC-2 | 0.546 | 0.502 | 0.489 | 0.522 | 0.482 | 0.972 | 0.988 | 0.963 | 0.868 | 0.963 | 1.1 | 0.944 | 1.14 | 0.948 | 0.69 | 0.76 | 0.639 | 0.831 | 0.803 | 0.741
EPLC-272H | 0.724 | 0.346 | 0.29 | 0.307 | 0.322 | 0.793 | 0.667 | 0.662 | 0.635 | 0.517 | 0.117 | 0.206 | 0.259 | 0.176 | 0.169 | 0.781 | 0.913 | 1.07 | 0.981 | 0.853
H3255 | 0.33 | 0.297 | 0.287 | 0.35 | 0.338 | 0.641 | 0.569 | 0.853 | 0.939 | 0.921 | 0.798 | 0.916 | 0.928 | 0.79 | 0.571 | – | 0.952 | 0.926 | 0.864 | 0.608
HARA | 0.334 | 0.223 | 0.261 | 0.238 | 0.225 | 1.24 | 0.934 | 0.776 | 1.04 | 0.746 | 0.272 | 0.302 | 0.582 | 0.259 | 0.128 | 1.27 | 1.02 | 1.03 | 0.98 | 0.216
HCC-15 | 0.815 | 0.73 | 0.633 | 0.832 | 0.598 | 1.09 | 1.02 | 0.975 | 1.18 | 0.94 | 1.11 | 1.13 | 1.48 | 0.903 | 0.448 | 0.747 | 0.824 | 0.883 | 0.775 | 0.473
HCC-44 | 1.02 | 0.887 | 0.984 | 1.04 | 0.96 | – | – | – | – | – | 0.928 | 1.01 | 0.991 | 1.03 | 0.944 | 0.758 | 0.775 | 0.84 | 0.847 | 0.574
HCC-78 | 0.443 | 0.446 | 0.411 | 0.466 | 0.352 | 0.612 | 0.594 | 0.462 | 0.528 | 0.434 | – | 0.505 | 0.42 | 0.3 | 0.236 | – | 0.304 | 0.337 | 0.25 | 0.197
HCC-366 | 0.35 | 0.384 | 0.39 | 0.393 | 0.353 | 0.947 | 0.867 | 0.889 | 0.971 | 0.938 | 0.228 | 0.239 | 0.308 | 0.254 | 0.158 | 0.49 | 0.404 | 0.701 | 0.586 | 0.476
HCC-827 | 0.507 | 0.471 | 0.426 | 0.349 | 0.378 | 1.1 | 0.971 | 1.04 | 1.05 | 0.915 | 0.192 | 0.276 | 0.26 | 0.183 | 0.164 | 0.856 | 1.03 | 0.944 | 0.888 | 0.779
